Reference: patent publication US12673915B2, “Precursor compound of hexahydro-beta-acid component compound, feed composition and use thereof” (WISORIG TECHNOLOGIES PTE. LIMITED, priority 2020, dated 2026)

How the values were obtained:
[1] = tested on: Duroc×Landrace×Yorkshire cross-bred bacon-type piglets; assay: Effect on the production performance of hogs (14-day feeding trial); format: in vivo; settings: 25 ppm in feed; for ADFI (average daily feed intake) / ADG (average daily weight gain) / FCR (feed conversion ratio): 14 days, piglets
Description: 480 67-day-old Duroc×Landrace×Yorkshire cross-bred bacon-type piglets with similar body weight, were randomly divided into 16 groups, with 3 replications per group, 10 piglets per replication and equal amounts of males and females. The pig pen and tools were sterilized before the trial. In the trial, the piglets were kept in separate regions in the same pig pen under the same feeding and management conditions, were given a free hand with the feed and the water, and were fed twice a day. The groups were known as control group (group 1) and test groups 2 to 16. The piglets of the control group were fed with basal formula feed only, while those of the test groups 2 to 16 were respectively fed with basal formula feed mixed with different additives, wherein the active ingredient of the additives was a hexahydro-β-acid compound or a prodrug of a hexahydro-β-acid compound provide herein, and the content thereof in the feed was 5 or 25 ppm as shown in Table 4.
The trial lasted for 14 days. During the trial, each test group was not fed with other antioxidants or growth enhancers. On the 14th day, each test group was fed with no feed but water for 12 hours, and the piglets of each replication as one unit were weighed to calculate the average daily feed intake (ADFI, g/d per piglet), the average daily weight gain (ADG, g/d per piglet), and the feed conversion ratio (FCR). Average daily feed intake=(Total weight of provided feed−Weight of residual feed)/(Days of the trial×Number of piglets in each replicate) Average daily weight gain=(final average body weight−initial average body weight)/Days of the trial Feed conversion ratio=average daily feed intake/average daily weight gain

[2] = Long-term stability in feeds at room temperature (25° C.±2° C., RH 60%±10%; HPLC); format: physicochemical; settings: for stability / content in feeds at room temperature (in words): during the testing period
Description: Feeds: ZUSF's premixed feed (A mixture of crushed Feed A and crushed Feed B at a weight ratio of 2:1, wherein Feed A was a 5.33% multi-premixed feed for piglets from ZUSF's Hao-Ru-Zhen-Jing, and B was a 2.67% multi-premixed feed for piglets from ZUSF's Hao-Ru-Zhen-Jing); creep feed for piglets from CP FEED; INSIGHTER's feed for broiler; 4% premixed feed from GUANGDONG CO-POWER.
Preparation of a sample of 1% premix of Ingredient: 1 g of an ingredient was respectively weighed out and evenly mixed with 99 g of corncob meal in a mixer to give a sample of 1% premix of an ingredient.
Preparation of a sample of 500 ppm feed of an ingredient: The sample of 1% premix of an ingredient was diluted step by step using the ZUSF's remixed feed to 5000 ppm and 500 ppm to give the sample of 500 ppm feed of an ingredient for later testing.
Preparation of a sample of 100 ppm feed of an ingredient: sample of 1% premix of an ingredient was diluted step by step using the creep feed for piglets from CP FEED to 1000 ppm and then 100 ppm to give the sample of 100 ppm feed of an ingredient for later testing.
Preparation of a sample of 100 ppm feed of an ingredient: The sample of 1% premix of an ingredient was diluted step by step using the INSIGHTER's feed for broiler to 1000 ppm and 100 ppm to give the sample of 100 ppm feed of an ingredient for later testing.
Preparation of a sample of 2000 ppm feed of an ingredient: The sample of 1% premix of an ingredient was diluted step by step using the 4% premixed feed from GUANGDONG CO-POWER to 5000 ppm and 2000 ppm to give the sample of 2000 ppm feed of an ingredient for later testing.
Method: Three replications of each feed sample were tested at the condition of 25° C.±2° C. and RH 60%±10%, wherein the replications of each feed sample were sampled in parallel for HPLC analysis on day 5, day 10, day 15, day 30, day 60, and day 90.
25.0 mg of an ingredient was accurately weighed out and dissolved in an appropriate amount of methanol or n-hexane by ultrasonication. The solution was then transferred to a volumetric flask and diluted to 50 mL to give a 500 ppm (by wt.) stock solution. The samples from the stock solution were diluted with methanol or n-hexane respectively to a concentration of 10 ppm, 25 ppm, 50 ppm, 100 ppm, and 250 ppm of work solution, and then the working solutions were filtered by 0.22 μm organic membranes. Between the concentration of a sample and the response value of HPLC peak area thereof, the linearity was adjusted and detected to give a standard curve.
5.0000 g of the samples sampled at different time intervals were respectively accurately weighed out, and dissolved in 25 mL of methanol or n-hexane by ultrasonication for 10 minutes. The resulting solutions were filtered by organic membranes and then analyzed by HPLC.
• Equipment: Waters e2695 with PDA detector. • Mobile phase: 0.02% phosphoric acid:methanol=5:95 (v:v). • Column: Symmetry Cis column (Waters; 250 mm×4.6 mm, 5 μm). • Wavelength: 235 nm. • Temperature of the Column: 25° C. • Injection volume: 10 μL. • Flow rate: 1 mL/min. Normal Phase Chromatography: • Equipment: Shimadzu LC-14C/SPD-15C. • Column: SuperSil NH2 column ([…]; 250 mm×4.6 mm). • Mobile phase: n-hexane:isopropanol=60:40 (v:v). • Wavelength: 235 nm. • Temperature of the Column: 25° C. • Injection volume: 20 μL. • Flow rate: 1 mL/min. 3: Results

[3] = 100 ppm in INSIGHTER's broiler feed, Day 5
[4] = 100 ppm in INSIGHTER's broiler feed, Day 15
[5] = 100 ppm in INSIGHTER's broiler feed, Day 30
[6] = 100 ppm in INSIGHTER's broiler feed, Day 60
[7] = 100 ppm in INSIGHTER's broiler feed, Day 90
[8] = 100 ppm in creep feed for piglets from CP FEED, Day 5
[9] = 100 ppm in creep feed for piglets from CP FEED, Day 15
[10] = 100 ppm in creep feed for piglets from CP FEED, Day 30
[11] = 100 ppm in creep feed for piglets from CP FEED, Day 60
[12] = 100 ppm in creep feed for piglets from CP FEED, Day 90
[13] = 500 ppm in ZUSF's premixed feed, Day 15
[14] = 500 ppm in ZUSF's premixed feed, Day 30
[15] = 500 ppm in ZUSF's premixed feed, Day 60
[16] = 500 ppm in ZUSF's premixed feed, Day 90

Row | Molecule | ADFI (average daily feed intake) [1] | ADG (average daily weight gain) [1] | FCR (feed conversion ratio) [1] | Residual amount of active ingredient [2, 3] | Residual amount of active ingredient [2, 4] | Residual amount of active ingredient [2, 5] | Residual amount of active ingredient [2, 6] | Residual amount of active ingredient [2, 8] | Residual amount of active ingredient [2, 9] | Residual amount of active ingredient [2, 10] | Residual amount of active ingredient [2, 11] | Residual amount of active ingredient [2, 12] | other results
1 | CCCC(=O)OC1=C(CCC(C)C)C(=O)C(CCC(C)C)(CCC(C)C)C(O)=C1C(=O)C(C)CC (centres unmarked) [Hexahydro-adlupulone mono-butyrate, hexahydro-adlupulone mono-butyrate] | 883 g/d per piglet | 398 g/d per piglet | 2.221 |  |  |  |  |  |  |  |  |  | 
2 | CCC(=O)OC1=C(CCC(C)C)C(=O)C(CCC(C)C)(CCC(C)C)C(O)=C1C(=O)C(C)CC (centres unmarked) [Hexahydro-adlupulone mono-propionate, hexahydro-adlupulone mono-propionate] | 876 g/d per piglet | 393 g/d per piglet | 2.228 |  |  |  |  |  |  |  |  |  | 
3 | CCC(C)C(=O)C1=C(O)C(CCC(C)C)(CCC(C)C)C(=O)C(CCC(C)C)=C1O (centres unmarked) [Hexahydro-adlupulone, reference compound] | 860 g/d per piglet | 384 g/d per piglet | 2.240 |  |  |  |  |  |  |  |  |  | 
4 | CCCC(=O)OC1=C(CCC(C)C)C(=O)C(CCC(C)C)(CCC(C)C)C(OC(=O)CCC)=C1C(=O)C(C)C [Hexahydro-colupulone di-butyrate, hexahydro-colupulone di-butyrate] | 950 g/d per piglet | 413 g/d per piglet | 2.298 |  |  |  |  |  |  |  |  |  | 
5 | CCC(=O)OC1=C(CCC(C)C)C(=O)C(CCC(C)C)(CCC(C)C)C(OC(=O)CC)=C1C(=O)C(C)C [Hexahydro-colupulone di-propionate, hexahydro-colupulone di-propionate] | 926 g/d per piglet | 415 g/d per piglet | 2.231 |  |  |  |  |  |  |  |  |  | 
6 | CCCCCCCCCCCC(=O)OC1=C(CCC(C)C)C(=O)C(CCC(C)C)(CCC(C)C)C(O)=C1C(=O)C(C)C [hexahydro-colupulone mono-laurate] | 918 g/d per piglet | 383 g/d per piglet | 2.399 | 99.63% | 99.65% | 99.68% | 98.68% |  |  |  |  |  | Residual amount of active ingredient [2, 7]: 98.47%; Residual amount of active ingredient ([2]; 1000 ppm in INSIGHTER's broiler feed, Day 5): 101.19%; Residual amount of active ingredient ([2]; 1000 ppm in INSIGHTER's broiler feed, Day 15): 101.72%; Residual amount of active ingredient ([2]; 1000 ppm in INSIGHTER's broiler feed, Day 30): 98.60%; Residual amount of active ingredient ([2]; 1000 ppm in INSIGHTER's broiler feed, Day 60): 97.85%; Residual amount of active ingredient ([2]; 1000 ppm in INSIGHTER's broiler feed, Day 90): 95.26%; effects on the performance of piglets compared with mono-acetate and mono-butyrate (in words) [1]: not as significant
7 | disodium salt of hexahydro-colupulone mono-phosphate [reference compound] |  |  |  | 86.64% | 83.77% | 81.32% | 76.53% | 66.59% | 58.39% | 55.80% | 47.76% | 44.33% | Residual amount of active ingredient [2, 7]: 62.97%
8 | hexahydro-colupulone mono-hexanoate | 913 g/d per piglet | 383 g/d per piglet | 2.386 | 98.90% | 97.72% | 96.58% | 95.77% | 102.18% | 96.14% | 95.30% | 95.20% | 95.55% | Residual amount of active ingredient [2, 13]: 87.50%; Residual amount of active ingredient [2, 14]: 89.00%; Residual amount of active ingredient [2, 15]: 86.07%; Residual amount of active ingredient [2, 16]: 83.77%; stability / content in feeds at room temperature (in words) [2]: relatively poor in some of the feeds; effects on the performance of piglets compared with mono-acetate and mono-butyrate (in words) [1]: not as significant
9 | hexahydro-colupulone mono-pentanoate |  |  |  | 98.84% | 98.12% | 97.73% | 96.64% | 100.94% | 98.82% | 96.92% | 96.01% | 95.61% | Residual amount of active ingredient [2, 13]: 94.29%; Residual amount of active ingredient [2, 14]: 94.80%; Residual amount of active ingredient [2, 15]: 88.17%; Residual amount of active ingredient [2, 16]: 89.14%; stability / content in feeds at room temperature (in words) [2]: relatively poor in some of the feeds
